According to patent US10179927B2, “Electrochemical detection of microorganisms” (priority 2014, dated 2019):
Read-outs that look alike come from different tables or passages of the source. Marks after values point to notes of the source that are not given here.

Experiments:
[1] = test system: E. coli; assay: Current from unconjugated redox active reporter moieties mediating electron transfer between E. coli and the electrode in ECs; format: cell-based, Escherichia coli; details: 5×10^5 CFU mL^−1 of E. coli; for Maximum recorded current in ECs: unconjugated reporter 50 μM
Description: (§1) Resorufin (TCI-Europe), 2-hydroxy-1,4-naphthoquinone (2H14NQ) (TCI-Europe), 5-hydroxy-1,4-naphthoquinone (5H14NQ) (TCI-Europe) and 5,8-dihydroxy-1,4-naphthoquinone (58H14NQ) (Sigma-Aldrich) were obtained commercially and added to M9 medium in their unconjugated form to achieve a working concentration of 50 μM. Resorufin glycoconjugates (resorufin-β-d-galactopyranoside and resorufin-β-d-glucopyranoside) were obtained commercially (Sigma-Aldrich), whereas 2-hydroxy-1,4-naphthoquinone-β-d-galactopyranoside (2H14NQGal) and 2-hydroxy-1,4-naphthoquinone-β-d-glucopyranoside (2H14NQG1u) were specifically synthesized by Sussex Research Ltd. All reporters were added to a final concentration of 50 μM. Stock concentrations (1.0×10^−3 M) of 2H14NQ and 5H14NQ were prepared by first dissolving in 10 μL of 2 M NaOH and then making up to volume in Type II water (Veolia) whereas 58H14NQ (1.0×10^−3 M) was prepared in 1:1 DMSO:Type II water aliquots. Both stock solutions were stored at −20° C. until needed. Conjugated reporters were maintained as 1 mM stock solutions in Type II water and stored at 5° C.
(§2) Escherichia coli strain BL21 was selected to represent a FIB of human origin that contains the uidA and lacZ genes, i.e. a FC, whereas Aeromonas hydrophila (DSM 6173) is an environmental organism that has the lacZ gene but which is not considered a coliform. All organisms were cultured aerobically for 20 h. E. coli was grown in Luria Bertani (Lennox) medium at 37° C., and A. hydrophile at 30° C. in tryptone soy broth (TSB) in a shaking incubator.
(§3) The resulting overnight cultures were diluted in sterile modified M9 medium (Na2HPO4.7H2O (126 mM); KH2PO4 (110 mM); NH4Cl (93 mM); NaCl (42 mM); 1 mL/L vitamin stock solution; tryptone 12.5 g/L; HEPES: 6 g/L; and macro nutrients). The carbon source was either D-galacturonic acid or D-glucuronic acid (3.75 g/L) to achieve a final inoculum density in the range of 1.0×10^0, 5.0×10^0, 5.0×10^1, 5.0×10^2, 5.0×10^3, 5.0×10^4, and 5.0×10^5 CFU mL^−1 in both electrochemical system and the bioelectrochemical system.
Conical ECs with a working volume of 10 mL were used with a customized Teflon cap to accommodate a three electrode configuration along with gas fittings to maintain a moist anaerobic atmosphere. Carbon felt working electrodes (1×1×0.318 cm) (VWR, Singapore) were kept for 24 h in 1 M HCl and stored in deionized (DI) water before use. The electrodes were connected to titanium wire (0.25 mmØ, Sigma-Aldrich) using a nylon nut and bolt. A coiled titanium wire was used as counter electrode and an Ag/AgCl reference electrode (78 mm, 6 mm Outer Ø, Biologic, France) was connected using a 1 M KCl in 1.5% agar salt bridge. The assembled cell was then filled with 1 M KCl solution ending in a 4 mm glass frit (CoralPor™, Biologic, France). The entire assembly was then autoclaved (121° C. for 15 min). Nine mL of degassed modified M9 medium was added to the ECs and supplemented with a reporter to a final concentration of 5.0×10^−5 M in 10 mL working volume. […]
(§4) Following reporter supplement and inoculation with the test microorganism, the ECs were connected to a multichannel potentiostat (Biologic, France) and cyclic voltammetry (CV) and differential pulse voltammetry (DPV) were performed immediately. Data acquisition was recorded by EC-Lab software (Biologic, France). […] A detection event was calculated as 4 times the standard deviation of the baseline and detection times are expressed as the mean of triplicate analyses unless stated otherwise. […]

[2] = test system: E. coli; assay: Current from unconjugated redox active reporter moieties with E. coli in self-powering bioelectrochemical systems (BES, microbial fuel cells); format: cell-based, Escherichia coli; details: 1 kΩ load, ambient temperature
Description: as §1, with “5° C. […]” for “5° C.”
Dual chamber U-tube BESs, in the form of microbial fuel cells (MFCs), were constructed with two 90° 28/15 ball-to-plain-end and socket-to-plain-end glass quick fit elbows (17 mm O.D.×1.8 mm wall thickness) (VWR, Singapore) to form the anode and cathode chambers (Sund et al., Appl. Microbiol. Biotechnol. 2007; 76:561-568.). […] A 1 kΩ load was applied across the circuit and potential difference was recorded using an eDAQ e-corder® data acquisition system (ED 1621-16 channel recorder) equipped with Chart™ software (Bronjo Medi, Singapore) at a rate of 1 data point every 5 min. […]
Naphthoquinones are cheap redox active molecules which are compatible with E. coli and can be readily conjugated to pyranose rings (Rau et al. Environ. Sci. Technol. 2002; 36:1497-1504; Park and Zeikus. Appl. Environ. Microbiol. 2000; 66:1292-1297). […]

[3] = test system: Escherichia coli strain BL21; assay: Chronoamperometric detection of E. coli with electrochemically active reporters in three-electrode electrochemical systems (ECs); format: cell-based; details: for Detection time (±std dev): chronoamperometry in ECs, reporter 50 μM; for Detection time for E. coli: inoculum sizes between 5×10^5-5×10^3, ECs (Table 1)
Description: as §1, §2, §3
Conical ECs with a working volume of 10 mL were used with a customized Teflon cap to accommodate a three electrode configuration along with gas fittings to maintain a moist anaerobic atmosphere. Carbon felt working electrodes (1×1×0.318 cm) (VWR, Singapore) were kept for 24 h in 1 M HCl and stored in deionized (DI) water before use. The electrodes were connected to titanium wire (0.25 mmØ, Sigma-Aldrich) using a nylon nut and bolt. A coiled titanium wire was used as counter electrode and an Ag/AgCl reference electrode (78 mm, 6 mm Outer Ø, Biologic, France) was connected using a 1 M KCl in 1.5% agar salt bridge. The assembled cell was then filled with 1 M KCl solution ending in a 4 mm glass frit (CoralPor™, Biologic, France). The entire assembly was then autoclaved (121° C. for 15 min). Nine mL of degassed modified M9 medium was added to the ECs and supplemented with a reporter to a final concentration of 5.0×10^−5 M in 10 mL working volume. The ECs were then inoculated with the targeted test organism to achieve a final working volume of 10 mL. The headspace was flushed continuously with sterile humidified N2. The ECs were operated at 30° C., 37° C. or 44.5° C. Stirring was maintained continuously with a magnetic stirrer in the dark to prevent photo-bleaching of the light sensitive mediators.
Following reporter supplement and inoculation with the test microorganism, the ECs were connected to a multichannel potentiostat (Biologic, France) and cyclic voltammetry (CV) and differential pulse voltammetry (DPV) were performed immediately. Data acquisition was recorded by EC-Lab software (Biologic, France). Chronoamperometry (CA) was applied for up to 24 h to detect redox active reporter moieties. A detection event was calculated as 4 times the standard deviation of the baseline and detection times are expressed as the mean of triplicate analyses unless stated otherwise. […]

[4] = test system: mixed culture of E. coli and A. hydrophila; assay: Detection time of mixed culture of A. hydrophila and E. coli in ECs; format: cell-based, Escherichia coli; Aeromonas hydrophila; details: 44.5° C.; E. coli constant 5×10^5 CFU mL^−1; A. hydrophila from 5×10^2-5×10^5 CFU mL^−1 (FIG. 6)
Description: as §2, §3
Conical ECs with a working volume of 10 mL were used with a customized Teflon cap to accommodate a three electrode configuration along with gas fittings to maintain a moist anaerobic atmosphere. Carbon felt working electrodes (1×1×0.318 cm) (VWR, Singapore) were kept for 24 h in 1 M HCl and stored in deionized (DI) water before use. The electrodes were connected to titanium wire (0.25 mmØ, Sigma-Aldrich) using a nylon nut and bolt. A coiled titanium wire was used as counter electrode and an Ag/AgCl reference electrode (78 mm, 6 mm Outer Ø, Biologic, France) was connected using a 1 M KCl in 1.5% agar salt bridge. […]
as §4

[5] = test system: Escherichia coli; assay: Suitability of colorimetric detection compounds for bioelectrochemical detection of Escherichia coli; format: cell-based; details: compound used for colorimetric detection of Escherichia coli
Text: Bioelectroanalytical techniques are emerging as ways to enumerate and scrutinize microbial systems. But there is still need in the art for technologies specifically designed for bioelectroanalytical detection of FIB. […] The latter, in particular, makes them unsuitable in self-powering systems.

[6] = test system: E. coli; details: Perez et al., cited from earlier work
[7] = 37° C., inoculum 5 × 10^2 CFU mL^−1
[8] = 37° C., inoculum 5 × 10^3 CFU mL^−1
[9] = 37° C., inoculum 5 × 10^4 CFU mL^−1
[10] = 37° C., inoculum 5 × 10^5 CFU mL^−1

Compound | Maximum recorded current in ECs [1] | Current observed in BES [2] | Detection time (±std dev) [3, 7] | Detection time (±std dev) [3, 8] | Detection time (±std dev) [3, 9] | Detection time (±std dev) [3, 10] | Suitability for bioelectrochemical detection [5] | further results
O=C1C=CC(=O)c2c(O)ccc(O)c21 [58H14NQ, 5,8-dihydroxy-1,4-naphthoquinone] | ~4 μA | 2.5 μA |  |  |  |  |  | 
O=C1C=C(O)C(=O)c2ccccc21 [2H14NQ, 2-hydroxy-1,4-naphthoquinone] | ~100 μA | 40 μA |  |  |  |  |  | Maximum current relative to that achieved with 5H14NQ ([1]; ECs): ~14 times; Maximum current relative to that observed with 58H14NQ ([1]; ECs): ~25 times
O=C1C=C(O[C@@H]2O[C@H](CO)[C@H](O)[C@H](O)[C@H]2O)C(=O)c2ccccc21 [2H14NQGal, 2-hydroxy-1,4-naphthoquinone-β-d-galactopyranoside] |  |  | 413(±14) minutes | 359(±13) minutes | 143(±17) minutes | 113(±13) minutes |  | Detection time ([3]; inoculum equivalent to 5×10^3 CFU mL^−1 of Perez et al., n=3): 6.87 h
O=c1ccc2nc3ccc(O[C@@H]4O[C@H](CO)[C@@H](O)[C@H](O)[C@H]4O)cc3oc-2c1 [ResGlu, resorufin-β-d-glucopyranoside] |  |  | 431(±29) minutes | 397(±52) minutes | 309(±33) minutes | 259(±19) minutes |  | Detection time ([3]; inoculum size 5×10^3 CFU mL^−1, ECs): 6.6 h; Detection time for E. coli [3]: 258 to 397 min
O=C1C=C(O[C@@H]2O[C@H](CO)[C@@H](O)[C@H](O)[C@H]2O)C(=O)c2ccccc21 [2H14NQGlu, 2-hydroxy-1,4-naphthoquinone-β-d-glucopyranoside] |  |  | 339(±41) minutes | 187(±31) minutes | 142(±11) minutes | 120(±21) minutes |  | Detection time (±std dev) ([3]; 30° C., inoculum 5 × 10^2 CFU mL^−1): 832* minutes; Detection time (±std dev) ([3]; 30° C., inoculum 5 × 10^3 CFU mL^−1): 574* minutes; Detection time (±std dev) ([3]; 30° C., inoculum 5 × 10^5 CFU mL^−1): 168* minutes; Detection time ([3]; 44.5° C., 10 organism, FIG. 7): 19 h; Detection time ([3]; 44.5° C., 500 organisms, FIG. 7): 12.5 h; Detection time ([3]; 44.5° C., 5000 organisms, FIG. 7): ~9 h; Detection time ([3]; 44.5° C., "CFU mL^−1 of E. coli" (number not given), FIG. 7): ~19 h; Detection time ([3]; 44.5° C., inoculum size 500 CFU mL^−1, FIG. 7): less than 10 h; Detection time for E. coli [3]: 120 to 188 min; Detection time, mixed culture [4]: 125 to 172 min
O=C(O)[C@H]1O[C@@H](Oc2cccc3cccnc23)[C@H](O)[C@@H](O)[C@@H]1O [8-hydroxyquinoline glucuronide] |  |  |  |  |  |  | not well suited for bioelectrochemical detection | 
Nc1ccc(O[C@@H]2O[C@H](CO)[C@H](O)[C@H](O)[C@H]2O)cc1 [4-APgal, 4-aminophenyl-β-d-galactopyranoside] |  |  |  |  |  |  | not well suited for bioelectrochemical detection | Detection time ([6]; 1 CFU mL^−1 (laboratory sample)): 10 h; Detection time ([6]; 4.5 CFU mL^−1 (marine sample)): 7.3 h
O=C1C=CC(=O)c2c(O)cccc21 [5H14NQ, 5-hydroxy-1,4-naphthoquinone] | ~7 μA | 6 μA |  |  |  |  |  | 
O=C(O)[C@H]1O[C@@H](Oc2ccc([N+](=O)[O-])cc2)[C@H](O)[C@@H](O)[C@@H]1O [4-NPglu, 4-nitrophenol-β-d-glucuronidase] |  |  |  |  |  |  | not well suited for bioelectrochemical detection | 
